According to PMC6112376, “Comprehensive Analyses and Prioritization of Tox21 10K Chemicals Affecting Mitochondrial Function by in-Depth Mechanistic Studies” (Environmental Health Perspectives, 2018):
Where two headings read alike, the source gives them in different places.

How the values were obtained:
[1] = tested on: HepG2 cells; details: cited from earlier work
[2] = tested on: rat primary hepatocytes; experiment: MMP assay in rat primary hepatocytes; details: for IC50: Rattus norvegicus, Hepatocyte, read-out: MMP assays IC50 (µM) Rat Hepatocytes
[3] = tested on: rat primary hepatocytes
[4] = tested on: HepG2 cells; experiment: cells; details: Homo sapiens; for IC50: HepG2, read-out: MMP assays IC50 (µM) HepG2; for Emax: HepG2, read-out: MMP assays efficacy (%) HepG2
[5] = read-out: MMP assays IC50 (µM), qHTS-HepG2
[6] = read-out: MMP assays IC50 (µM) qHTS-HepG2

Structure (SMILES) | MMP assays efficacy (%) qHTS-HepG2 [1] [%] | IC50 [1, 5] [µM] | IC50 [2] [µM] | MMP assays efficacy (%) Rat Hepatocytes [3] | IC50 [4] [µM] | Emax [4] [%] | IC50 [1, 6] [µM] | MMP assays IC50 (µM) Rat Hepatocytes [2]
Cc1cc(C(F)(C(F)(F)F)C(F)(F)F)ccc1NC(=O)c1cccc(I)c1C(=O)NC(C)(C)CS(C)(=O)=O [Flubendiamide] | -87±14 | 18.7 ± 2.59 | 12.8 ± 8.15 | -80±23% | 25.3 | 94 |  | 
NS(=O)(=O)C(F)(F)C(F)(F)C(F)(F)C(F)(F)C(F)(F)C(F)(F)C(F)(F)C(F)(F)F [Perfluorooctanesulfonamide] | -94±15 | 2.43 ± 0.81 | 1.47 ± 0.1 | -118±45% | 2.51 | 101 |  | 
COP(=S)(OC)Oc1cc(Cl)c(Cl)cc1Cl [Fenchlorphos] | -97±9 |  | 20.6 ± 1.68 | -96±29% | 6.15 | 99 | 13.6 ± 2.52 | 
COc1ccc2cc3[n+](cc2c1OC)CCc1cc2c(cc1-3)OCO2 [Berberine chloride] | -95±8 |  | 6.03 ± 3.78 | -101±32% | 3.46 | 92 | 2.03 ± 1.29 | 
ClC1=C(Cl)C2(Cl)C3C4C=CC(C4)C3C1(Cl)C2(Cl)Cl (centres unmarked) [Aldrin] | -86±11 |  |  | inactive | 39.8 | 106 | 31.2 ± 7.21 | inactive
O=C(CC(=O)c1ccccc1)c1ccccc1 [1,3-Diphenyl-1,3-propanedione] | -75±15 |  | 39.8 ± 14.2 | -84±43% | 35.5 | 121 | 11.7 ± 1.35 | 
OC1(c2ccc(Cl)c(C(F)(F)F)c2)CCN(CCCC(c2ccc(F)cc2)c2ccc(F)cc2)CC1 [Penfluridol] | -88±15 | 33.5 | 23.2 ± 6.57 | -64±25% | 27.5 | 68 |  | 
CCCCCCCCSC(=O)Oc1cc(Cl)nnc1-c1ccccc1 [Pyridate] | -97±17 | 33.1 ± 4.58 | 50.5 ± 8.18 | -59±19% | 35.5 | 44 |  | 
Oc1ccc2ccc3cccc4ccc1c2c34 [Compound 1-Hydroxypyrene] | -110±22 |  | 33.5 ± 2.73 | -49±25% | 7.08 | 99 | 4.67 ± 1.95 | 
O=S(=O)(Oc1ccc(Cl)cc1)c1ccc(Cl)cc1 [Chlorfenson] | -94±17 |  | 23.7 ± 17.2 | -62±24% | 44.7 | 88 | 38.8 ± 25.4 | 
Oc1c(Cl)c(Cl)c(Cl)c(Cl)c1Cl [Pentachlorophenol] | -97±20 | 3.09 ± 0.6 | 4.17 ± 0.75 | -119±31% | 8.9 | 99 |  | 
CSC1=N[C@@](C)(c2ccccc2)C(=O)N1Nc1ccccc1 [Fenamidone] | -72±14 |  | 42.8 ± 10.3 | -56±23% | 19.9 | 59 | 43.3 ± 17.1 | 
O=c1cc(-c2ccc(O)cc2)oc2cc(O)cc(O)c12 [Apigenin] | -98±2 |  | 28.9 ± 9.26 | -66±35% | 3.55 | 88 | 1.61 | 
Oc1ccc(Cl)c(Cl)c1Cl [2,3,4-Trichlorophenol] | -101±8 |  | 41.8 ± 14.4 | -59±36% | 7.94 | 101 | 5.23 ± 1.52 | 
Oc1ccc(Cl)c(Cl)c1 [3,4-Dichlorophenol] | -104±7 |  | 53.9 ± 13 | -45±32% | 15.8 | 114 | 9.18 ± 2.63 | 
Nc1ccc(/N=N/c2ccc(N)cc2)cc1 [4,4'-Diaminoazobenzene] | -86±5 |  | 26.6 ± 12.5 | -50±40% | 5.62 | 87 | 10.5 ± 3.59 | 
Nc1ccccc1N [1,2-Phenylenediamine] | -96±16 |  | 17.9 ± 6.5 | -41±14% | 2.51 | 87 | 3.9 ± 3.61 | 
CC(=O)Oc1ccccc1C(=O)Nc1ncc([N+](=O)[O-])s1 [Nitazoxanide] | -94±10 | 1.04 ± 0.96 | 6.94 ± 4.36 | -94±13% | 1.26 | 89 |  | 
C[C@H]1O[C@@H](O[C@H]2CC[C@@]3(C)[C@H](CC[C@@H]4[C@@H]3C[C@@H](O)[C@]3(C)[C@@H](C5=CC(=O)OC5)CC[C@]43O)C2)C[C@H](O)[C@@H]1O[C@H]1C[C@H](O)[C@H](O[C@H]2C[C@H](O)[C@H](O[C@@H]3O[C@H](CO)[C@@H](O)[C@H](O)[C@H]3O)[C@@H](C)O2)[C@@H](C)O1 [Deslanoside] | -81±14 |  |  | inactive | 0.44 | 97 | 1.84 ± 0.23 | inactive
CCC(C)c1ccc(O)cc1 (centres unmarked) [4-(Butan-2-yl)phenol] | -101±7 |  |  | inactive | 35.5 | 77 | 32 ± 3.64 | inactive
COC(=O)N(OC)c1ccccc1COc1ccn(-c2ccc(Cl)cc2)n1 [Pyraclostrobin] | -116±2 | 6.35 ± 1.92 | 9.04 ± 1.89 | -121±32% | 1.26 | 118 |  | 
O=[N+]([O-])c1cc(C2CCCCC2)c(O)c([N+](=O)[O-])c1 [Dinex] | -88±10 |  | 1.4 ± 0.6 | -96±4% | 0.71 | 86 | 0.28 ± 0.34 | 
CC(C)[C@@H](Nc1ccc(C(F)(F)F)cc1Cl)C(=O)OC(C#N)c1cccc(Oc2ccccc2)c1 (some centres unmarked) [tau-Fluvalinate] |  | 37.2 ± 15.1 |  | inactive | 31.6 | 58 |  | inactive
CCC(C)c1cccc(C(C)CC)c1O (centres unmarked) [2,6-Di(butan-2-yl)phenol] | -85±30 |  |  | inactive | 15.8 | 110 | 13.7 ± 3.19 | inactive
C[C@]12CCC(=O)C[C@@H]1CC[C@@H]1[C@@H]2CC[C@]2(C)[C@@H](O)CC[C@@H]12 [Compound 5alpha-Dihydrotestosterone] | -72±9 |  |  | inactive | 17.3 | 45 | 13.3 ± 6.16 | inactive
